Reference: ChEMBL document CHEMBL1201862, “PubChem BioAssay data set” (2004)
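Results reflect a 48-hour exposure of cells in 96-well plates to compound at five concentrations. GI50 is the concentration that inhibits growth by half.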 Active and inactive are the calls of the source. Rule as the data show it: active = GI50 up to about 1.1 µM and inactive = higher.

How the values were obtained:
Experiment in all cases: NCI-60 cell line screen, 48 h
MOLT-4 = system: MOLT-4
NCI/ADR-RES = system: NCI/ADR-RES
NCI-H226 = system: NCI-H226
CAKI-1 = system: CAKI-1
NCI-H522 = system: NCI-H522
HT-29 = system: HT-29
SF-539 = system: SF-539
Hs-578T = system: Hs-578T
SR = system: SR
786-0 = system: 786-0
HOP-62 = system: HOP-62
SN12C = system: SN12C
RXF 393 = system: RXF 393
MDA-MB-435 = system: MDA-MB-435
RPMI-8226 = system: RPMI-8226
SF-295 = system: SF-295
A498 = system: A498
A549 = system: A549
OVCAR-8 = system: OVCAR-8
COLO 205 = system: COLO 205
NCI-H23 = system: NCI-H23
SK-MEL-2 = system: SK-MEL-2
U-251 = system: U-251
SW-620 = system: SW-620
OVCAR-3 = system: OVCAR-3
K562 = system: K562
MDA-MB-231 = system: MDA-MB-231
UACC-62 = system: UACC-62
IGROV-1 = system: IGROV-1
OVCAR-5 = system: OVCAR-5
M14 = system: M14
BT-549 = system: BT-549
SNB-75 = system: SNB-75
TK-10 = system: TK-10
SK-OV-3 = system: SK-OV-3
KM12 = system: KM12
SK-MEL-5 = system: SK-MEL-5
HL-60 = system: HL-60
SF-268 = system: SF-268
UACC-257 = system: UACC-257
MCF7 = system: MCF7
UO-31 = system: UO-31
MDA-N = system: MDA-N
Malme-3M = system: Malme-3M
PC-3 = system: PC-3
HOP-92 = system: HOP-92
NCI-H460 = system: NCI-H460
LOX IMVI = system: LOX IMVI
T47D = system: T47D
SK-MEL-28 = system: SK-MEL-28
HCT-15 = system: HCT-15
OVCAR-4 = system: OVCAR-4
SNB-19 = system: SNB-19
ACHN = system: ACHN
HCT-116 = system: HCT-116
DU-145 = system: DU-145
EKVX = system: EKVX
HCC 2998 = system: HCC 2998
CCRF-CEM = system: CCRF-CEM

Measured: GI50

O=C(CSC1=NCCN1)c1ccccc1
active: HL-60 < 0.01 µM
inactive: MOLT-4 > 100 µM | NCI/ADR-RES > 100 µM | NCI-H226 > 100 µM | CAKI-1 > 100 µM | NCI-H522 > 100 µM | HT-29 > 100 µM | SF-539 > 100 µM | Hs-578T > 100 µM | SR > 100 µM | 786-0 > 100 µM | HOP-62 > 100 µM | SN12C > 100 µM | RXF 393 > 100 µM | MDA-MB-435 > 100 µM | RPMI-8226 > 100 µM | SF-295 > 100 µM | A498 > 100 µM | A549 > 100 µM | OVCAR-8 > 100 µM | COLO 205 > 100 µM | NCI-H23 > 100 µM | SK-MEL-2 > 100 µM | U-251 > 100 µM | SW-620 > 100 µM | OVCAR-3 > 100 µM | K562 > 100 µM | MDA-MB-231 > 100 µM | UACC-62 > 100 µM | IGROV-1 > 100 µM | OVCAR-5 > 100 µM | M14 > 100 µM | BT-549 > 100 µM | SNB-75 > 100 µM | TK-10 > 100 µM | SK-OV-3 > 100 µM | KM12 > 100 µM | SK-MEL-5 > 100 µM | SF-268 > 100 µM | UACC-257 > 100 µM | MCF7 > 100 µM | UO-31 > 100 µM | MDA-N > 100 µM | Malme-3M > 100 µM | PC-3 > 100 µM | HOP-92 > 100 µM | NCI-H460 > 100 µM | LOX IMVI > 100 µM | T47D > 100 µM | SK-MEL-28 > 100 µM | OVCAR-4 > 100 µM | SNB-19 > 100 µM | ACHN > 100 µM | HCT-116 > 100 µM | DU-145 > 100 µM | EKVX > 100 µM
> 100 µM: HCT-15

CC(=O)CCC[C@H](C)[C@@H](O)[C@@H]1O[C@H]([C@@]2(C)CCC(=O)O2)C[C@H]1C(=O)O
> 100 µM: HCT-15
inactive: MOLT-4 > 100 µM | NCI/ADR-RES > 100 µM | NCI-H226 > 100 µM | CAKI-1 > 100 µM | HCC 2998 > 100 µM | NCI-H522 > 100 µM | HT-29 > 100 µM | SF-539 > 100 µM | Hs-578T > 100 µM | SR 37.2 µM | 786-0 > 100 µM | HOP-62 > 100 µM | SN12C > 100 µM | RXF 393 > 100 µM | MDA-MB-435 > 100 µM | RPMI-8226 > 100 µM | SF-295 > 100 µM | A549 > 100 µM | OVCAR-8 > 100 µM | COLO 205 > 100 µM | CCRF-CEM > 100 µM | NCI-H23 > 100 µM | SK-MEL-2 > 100 µM | U-251 > 100 µM | SW-620 > 100 µM | OVCAR-3 > 100 µM | K562 > 100 µM | MDA-MB-231 > 100 µM | UACC-62 > 100 µM | IGROV-1 > 100 µM | OVCAR-5 > 100 µM | BT-549 35.6 µM | SNB-75 > 100 µM | TK-10 > 100 µM | SK-OV-3 > 100 µM | KM12 > 100 µM | SK-MEL-5 > 100 µM | SF-268 > 100 µM | UACC-257 > 100 µM | MCF7 > 100 µM | UO-31 > 100 µM | MDA-N > 100 µM | PC-3 > 100 µM | NCI-H460 > 100 µM | LOX IMVI > 100 µM | T47D > 100 µM | SK-MEL-28 > 100 µM | OVCAR-4 > 100 µM | SNB-19 > 100 µM | ACHN > 100 µM | HCT-116 > 100 µM | DU-145 > 100 µM | EKVX > 100 µM
